Assay results published in BindingDB's records for doi:10.1021/jm800936s (University of Oxford, 2008).

The compounds below were run against T1, Lysine-specific demethylase 4E (Homo sapiens, UniProt B2RXH2) (assay: FDH Coupled Inhibition Assay). Conditions: pH 7.5; 37 °C.
T1 sequence (B2RXH2 whole entry): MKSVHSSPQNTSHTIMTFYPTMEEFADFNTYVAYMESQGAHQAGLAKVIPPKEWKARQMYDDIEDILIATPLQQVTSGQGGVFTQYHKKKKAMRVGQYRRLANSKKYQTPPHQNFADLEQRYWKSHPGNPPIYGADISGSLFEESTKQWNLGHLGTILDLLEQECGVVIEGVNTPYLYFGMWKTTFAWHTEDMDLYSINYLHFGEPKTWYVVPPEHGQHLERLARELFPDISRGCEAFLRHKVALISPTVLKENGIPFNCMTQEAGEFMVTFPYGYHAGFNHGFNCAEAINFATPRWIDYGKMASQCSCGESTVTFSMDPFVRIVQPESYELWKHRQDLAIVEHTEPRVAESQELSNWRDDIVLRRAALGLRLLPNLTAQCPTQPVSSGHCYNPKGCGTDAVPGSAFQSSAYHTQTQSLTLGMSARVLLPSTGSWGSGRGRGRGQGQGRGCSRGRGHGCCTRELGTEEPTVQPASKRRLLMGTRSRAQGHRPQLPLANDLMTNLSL
Experimental: A coupled-assay for JMJD2E activity employing formaldehyde dehydrogenase (FDH) from Pseudomonas putida was developed. Formaldehyde release by demethylation of the histone peptide substrate was monitored by its oxidation to give formate as catalyzed by FDH, which is carried out concomitantly with the reduction of NAD+. The production of NADH was monitored by fluorescence spectroscopy.
With `O=C(O)c1cncc(C(=O)O)c1` [pyridine-3,5-dicarboxylic acid] the IC50 was greater than 10 mM. For `O=C(O)c1cccnc1C(=O)O` [pyridine-2,3-dicarboxylic acid], the IC50 was greater than 5 mM. `O=C(O)c1ccncc1C(=O)O` [pyridine-3,4-dicarboxylic acid] showed an IC50 greater than 10 mM. With `CCCC(=O)O` [butanoic acid] the IC50 was greater than 10 mM. With `COC(=O)c1ccnc(-c2cc(C(=O)O)ccn2)c1` [2-[4-(methoxycarbonyl)pyridin-2-yl]pyridine-4-carboxylic acid] the IC50 was 0.0066 mM.
